As usually defined, the viability is a per cent measure of how many cells are alive, often set against a control. Usually Ki stands for a measure of affinity in units of concentration, obtained from inhibition or displacement.

Like-named read-outs stand apart in the source and are kept apart here.

Test [1] concerns two cultured human colon carcinoma cell lines and Chinese hamster ovary (CHO K-I) cells. The following applies: cited from earlier work; for toxicity when used alone: deoxycoformycin .001 to 1 μM, 2′-deoxyadenosine 0 to 500 μM.
The subject of another test is neuronal cell. Conditions: dose-dependent; cited from earlier work.
Test [2] deals with OVCAR3 ovarian cancer cells. Nature of the test: MTT cell viability assay, OVCAR3. Conditions: for viability at 10 µM: Homo sapiens, OVCAR-3, 60 h, read-out: cell viability as a percentage of control. The procedure:
For the experiments MCF7 breast cancer cells and OVCAR3 ovarian cancer cells (both obtained from the American Type Culture Collection (ATCC), Manassas, Va.) were cultured in RPMI 1640 media containing 10% fetal calf serum (Life Technologies, Gaithersburg, Md.). After 24 hours of culturing at 37° C. in 5% CO2, additional medium was added containing either adenosine (final concentration 10 μM), coformycin (final concentration 10 μM), or 10 μM each of adenosine and coformycin. Additional media alone was added to control cultures.
The cells were cultured in these chemotherapeutic media for an additional 60 hours, at which time the viability of the cells were determined using an MTT assay (Celltitre 98 Aqueous 1, Promega, Madison, Wis.).
The OVCAR3 ovarian cancer cell line was cultured as described in Example 1 for 24 hours and then treated with either 5 μM (final concentration) dipyridimole alone; 10 μM adenosine plus 10 μM coformycin alone; or the combination of these two treatments. In a control sample, culture media alone was added. The cultures were grown for an additional 60 hours and then analyzed for cell growth.
The same experiments were repeating using 5 μM (final concentration) 5′-amino-5′-deoxyadenosine alone; 5 μM adenosine plus 10 μM coformycin alone; or the combination of these two treatments.
The procedures described in Example 1 were repeated using the OVCAR 3 ovarian cancer cell line, and using as therapeutic agents 10 μM coformycin in combination with 10 μM of either adenosine, 2-chloroadenosine, 8-chloroadenosine, or 8-chloro-cAMP.

The subject of a further test is lymphoid cells. The following applies: cited from earlier work.
For the next test, the system named is MCF7 breast cancer cells. Nature of the test: MTT cell viability assay, MCF7. It counts as cell-based. The following applies: Homo sapiens, read-out: cell viability as a percentage of control. On the procedure: (§1) Additional media alone was added to control cultures.
A further test concerns fibroblasts. Conditions: cited from earlier work.
Another test relates to mouse melanoma cells. Conditions: cited from earlier work.
In test [3] the test system is cell lines OVCAR 3, OVCAR 5, MCF7, and HT 29. The test can be described thus: Adenosine with CF or dCF, tumor cell toxicity assay (Example 4). Type of test: cell-based. The following applies: 5 μM adenosine with 5 μM CF or 5 μM dCF; 60 hours. On the procedure:
as §1
The procedures described in Example 1 were repeated using cell lines OVCAR 3, OVCAR 5, MCF7, and HT 29 and using 5 μM adenosine in combination with either 5 μM CF or 5 μM dCF as the therapeutic combination of agents.

Test [4] concerns the target T1, adenosine deaminase (ADA) (Homo sapiens, UniProt P00813).
T1 sequence (P00813 1-363): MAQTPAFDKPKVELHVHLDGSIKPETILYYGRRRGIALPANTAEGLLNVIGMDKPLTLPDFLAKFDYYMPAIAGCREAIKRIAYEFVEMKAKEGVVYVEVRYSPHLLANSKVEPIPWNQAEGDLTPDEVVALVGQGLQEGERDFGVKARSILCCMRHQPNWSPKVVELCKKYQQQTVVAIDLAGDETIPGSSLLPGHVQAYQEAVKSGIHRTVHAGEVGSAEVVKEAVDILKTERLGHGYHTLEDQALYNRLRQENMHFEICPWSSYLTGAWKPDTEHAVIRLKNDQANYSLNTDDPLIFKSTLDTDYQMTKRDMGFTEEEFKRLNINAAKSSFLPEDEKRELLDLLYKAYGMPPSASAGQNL
The following applies: Cha et al. 1975; Agarwal et al. 1977; cited from earlier work.

For a further test, the system named is AMPDA. The following applies: CF versus dCF; cited from earlier work.

As to `OC[C@H]1O[C@@H](n2cnc3c2NC=NC[C@H]3O)C[C@@H]1O` [deoxycoformycin], in [1], the “toxicity when used alone” value is given as “Neither compound was reported to be toxic when used alone”.

As to `Nc1ncnc2c1ncn2[C@H]1C[C@H](O)[C@@H](CO)O1` [2′-deoxyadenosine], the “toxicity when used alone” value in [1] is “Neither compound was reported to be toxic when used alone”. For the same compound, the “concentration required to approach full cell growth inhibition” value in test [1] (in combination with deoxycoformycin) is 50 to 150 µM. The “concentration of maximal neuronal cell toxicity” value in the test with neuronal cell was 300 µM.

`OCCN(CCO)c1nc(N2CCCCC2)c2nc(N(CCO)CCO)nc(N3CCCCC3)c2n1` [dipyridamole]: in test [2] (OVCAR3, 5 μM dipyridimole + 10 μM adenosine + 10 μM coformycin, 60 hours), the “cell growth with protective agent added to Ado/CF” value is on record as “approximating that of the untreated control”. In addition, the “cell growth as percentage of the control” value in test [2] (OVCAR3, 5 μM dipyridimole alone or 10 μM adenosine plus 10 μM coformycin alone, 60 hours) is on record as “comparable to the control”.

Consider `NC[C@H]1O[C@@H](n2cnc3c(N)ncnc32)[C@H](O)[C@@H]1O` [5′-amino-5′-deoxyadenosine], for which the “block of toxic effects of Ado/CF combination” value in [2] (OVCAR3, 5 μM 5′-amino-5′-deoxyadenosine + 5 μM adenosine + 10 μM coformycin, 60 hours) is recorded as “essentially completely block”. In addition, in [2] (OVCAR3, 5 μM 5′-amino-5′-deoxyadenosine alone, 60 hours), the “cell growth, agent alone” value is reported as ~80 % of control.

On to `Nc1ncnc2c1ncn2[C@@H]1O[C@H](CO)[C@@H](O)[C@H]1O` [adenosine], for which the “concentration required for similar (80%) growth inhibition” value in the test on lymphoid cells is 5 µM; in the test on fibroblasts it was 400 µM. In addition, the viability at 10 µM in the test with MCF7 breast cancer cells (MCF7, 10 μM final concentration of each agent, 60 hours) is greater than 100%; in test [2] it was greater than 100%. The “concentration giving 80% growth inhibition” value with mouse melanoma cells was 50 µM.

In the case of `OC[C@H]1O[C@@H](n2cnc3c2N=CNC[C@H]3O)[C@H](O)[C@@H]1O` [coformycin], the “potentiation of adenosine toxicity” value in test [3] is on record as “consistently potentiated to toxicity of the adenosine to a greater extent than the deoxycoformycin”. In addition, the viability at 10 µM in the test with MCF7 breast cancer cells (MCF7, 60 h) is greater than 100%; in test [2], greater than 100%. The Ki in test [4] was 0.025 nM. Also, the “fold more potent inhibitor of AMPDA” value in the test with AMPDA is recorded as 50 fold.
